Counter-ions that a name gives are not always drawn. Like-named read-outs stand apart in the source and are kept apart here.

For data set [1], the target named is T1, estrogen receptor α (ERα) (Homo sapiens, UniProt P03372).
T1 sequence (P03372 1-595): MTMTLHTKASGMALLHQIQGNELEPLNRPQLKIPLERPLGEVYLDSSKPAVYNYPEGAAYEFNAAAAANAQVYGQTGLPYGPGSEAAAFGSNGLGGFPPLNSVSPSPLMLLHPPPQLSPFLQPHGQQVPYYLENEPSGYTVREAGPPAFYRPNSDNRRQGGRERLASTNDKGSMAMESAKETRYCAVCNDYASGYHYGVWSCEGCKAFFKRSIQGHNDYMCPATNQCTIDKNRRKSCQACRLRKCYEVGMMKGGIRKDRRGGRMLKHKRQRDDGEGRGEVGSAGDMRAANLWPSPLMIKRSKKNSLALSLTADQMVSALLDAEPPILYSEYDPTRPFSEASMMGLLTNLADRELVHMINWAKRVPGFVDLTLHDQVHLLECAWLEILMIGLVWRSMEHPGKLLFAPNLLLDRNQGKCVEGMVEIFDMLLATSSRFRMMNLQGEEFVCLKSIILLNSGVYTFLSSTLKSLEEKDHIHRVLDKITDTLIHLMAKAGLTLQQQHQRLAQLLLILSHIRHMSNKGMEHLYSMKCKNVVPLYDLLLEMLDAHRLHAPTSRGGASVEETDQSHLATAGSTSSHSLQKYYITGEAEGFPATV
Briefly: Luciferase reporter gene assay. Format: cell-based. The note with it: for IC50: HEC-1 cells, full-length ERα, 1 nM estradiol, 24 h.

The target in data set [2] is T2, Gal4-SRC-1NRD / ERαDEF-VP16 (Homo sapiens, UniProt P03372).
T2 sequence (P03372 264-595 limits assumed): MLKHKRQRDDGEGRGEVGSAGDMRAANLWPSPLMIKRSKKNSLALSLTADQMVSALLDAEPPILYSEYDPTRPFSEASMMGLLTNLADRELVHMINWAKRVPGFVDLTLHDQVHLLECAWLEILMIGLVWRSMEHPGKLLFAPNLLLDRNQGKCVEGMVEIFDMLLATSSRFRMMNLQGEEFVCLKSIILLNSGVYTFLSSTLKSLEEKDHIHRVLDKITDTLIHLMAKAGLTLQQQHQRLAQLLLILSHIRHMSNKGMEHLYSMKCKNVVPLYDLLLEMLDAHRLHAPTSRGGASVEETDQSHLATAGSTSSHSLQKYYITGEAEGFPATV
Briefly: Mammalian two hybrid. The note with it: read-out: IC50, CBI inhibition in the M2H assay; HEC-1 cells, 1 nM estradiol, 24 h. Format: cell-based.

The target in data set [3] is T3, recombinant estrogen receptor ligand binding domain / fluorescein-labeled SRC peptide (Homo sapiens, UniProt P03372).
T3 sequence (P03372 311-547 limits assumed): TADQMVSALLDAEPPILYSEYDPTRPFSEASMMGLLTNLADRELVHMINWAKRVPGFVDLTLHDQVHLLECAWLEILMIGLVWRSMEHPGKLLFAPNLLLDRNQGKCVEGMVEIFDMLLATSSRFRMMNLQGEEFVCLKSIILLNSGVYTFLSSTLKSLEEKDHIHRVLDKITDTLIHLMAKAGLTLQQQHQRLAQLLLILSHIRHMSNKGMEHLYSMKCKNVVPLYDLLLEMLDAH
Briefly: Fluorescence polarization assay of ER/coactivator interaction. The note with it: 1 μM estradiol, Figure 1. A general note: Polarisation of emitted light reports the rotation of a fluorescent probe.

The next data set deals with T4, ERα (Homo sapiens, UniProt P03372).
T4 sequence (P03372 1-595): T1 sequence (P03372 1-595)
Briefly: Covalent attachment test, ESI mass spectrometry of ER after incubation. The note with it: 30 min at 4 °C in phosphate-buffered saline, dialysis overnight, low-res ESI.

For data set [4], the system named is ER transactivation in human breast cancer MCF-7 cells. The note with it: cited from earlier work.
Another data set has as its system ER. The note with it: read-out: IC50, CBI activity against ER; mammalian two-hybrid (M2H) assay; cited from earlier work.
The mark [5] stands for this setting: read-out: IC50, CBI inhibition of reporter gene activity.
[6] abbreviates: IC50, CBI inhibition of reporter gene activity.

The IC50 is the concentration at which inhibition is half-maximal. For “1-(1-Chloro-3,4-dihydro-naphthalen-2-yl)-ethanone aminoguanylhydrazone HCl [compound 33]”, the IC50 in data set [1] (setting [5]) is not below 50 µM.
Regarding “3-Chloro-3-naphthalen-1-yl-propenal aminoguanylhydrazone HCl [compound 30]”, the IC50 in data set [1] (setting [5]) and in data set [2] was not below 50 µM in each case.
Turning to `N=C(N)N/N=C/C1=C(Cl)c2ccccc2CC1` [compound 1, 1-Chloro-3,4-dihydronaphthalene-2-carboxaldehyde aminoguanylhydrazone HCl], the “inhibition of ER/coactivator interaction” value in data set [3] is listed as “Dose-dependent inhibition”. The “change in molecular weight of ER (covalent attachment)” value on ERα is recorded as “no change in molecular weight was observed”. The ER transactivation entry in data set [4] is on record as “inhibited ER transactivation”. Besides, in the data set on ER, the IC50 is 5.5 µM.
As to `Cc1cc(C)c2c(c1)C(Cl)=C(/C=N/NC(=N)N)CC2` [compound 20, 1-Chloro-5,7-dimethyl-3,4-dihydronaphthalene-2-carboxaldehyde aminoguanylhydrazone HCl], the IC50 in data set [1] (setting [6]) is 1.2 ± 0.1 µM.
Still for that read-out and setting: under `CC1CC(/C=N/NC(=N)N)=C(Cl)c2ccccc21` (centres unmarked) [compound 21, 1-Chloro-3-dihydro-4-methylnaphthalene-2-carboxaldehyde aminoguanylhydrazone HCl] stands 1.5 µM.
As to `N=C(N)N/N=C/C1=C(Cl)c2ccccc2CCC1` [compound 23, 9-Chloro-6,7-dihydro-5-benzocycloheptene-8-carboxaldehyde aminoguanylhydrazone HCl], in data set [3], the “inhibition of ER/coactivator interaction” value is “Dose-dependent inhibition”. Further, the IC50 in data set [1] (setting [6]) was found to be 3.3 ± 0.8 µM.
In data set [1] (setting [6]), `N=C(N)N/N=C/C1=C(Br)c2ccccc2CC1` [compound 24, 1-Bromo-3,4-dihydronaphthalene-2-carboxaldehyde aminoguanylhydrazone HCl] yielded an IC50 of 7.8 ± 0.1 µM.
With `COC1=C(/C=N/NC(=N)N)CCc2ccccc21` [compound 25, 1-Methoxy-3,4-dihydronaphthalene-2-carboxaldehyde aminoguanylhydrazone HCl], in data set [1] (setting [6]), the IC50 is 3.1 ± 0.8 µM.
Still for that read-out and setting: under `N=C(N)N/N=C/C1=C(Oc2ccccc2)c2ccccc2CC1` [compound 26, 1-Phenoxy-3,4-dihydronaphthalene-2-carboxaldehyde aminoguanylhydrazone HCl] stands 3.5 ± 1.1 µM.
Same read-out and setting: the value for `N=C(N)N/N=C/C1=C(C(F)(F)F)c2ccccc2CC1` [compound 27, 1-(1,1,1,-Trifluoromethyl)-3,4-dihydronaphthalene-2-carboxaldehyde aminoguanylhydrazone HCl] was 12 µM.
`CC(/C=N/NC(=N)N)=C(/Cl)c1ccccc1` [compound 29, β-Chloro-α-methylcinnamaldehyde aminoguanylhydrazone HCl]: the “inhibition of ER/coactivator interaction” value in data set [3] was “Dose-dependent inhibition”. This molecule yielded an IC50 in data set [1] (setting [6]) of 1.4 ± 0.4 µM.
Regarding `N=C(N)N/N=C/c1cccc2ccccc12` [compound 31, 2-(1-Naphthalenylmethylene) hydrazinecarboximidamide HCl], in data set [1] (setting [6]), the IC50 stood at 7.5 µM.
Still for that read-out and setting: under `N=C(N)N/N=C/c1ccc2ccccc2c1` [compound 32, 2-(2-Naphthalenylmethylene)hydrazinecarboximidamide HCl] stands 7.5 ± 0.5 µM.
Take hydroxytamoxifen [reference compound]: in data set [1] (reporter gene assay, 1 nM vs 100 nM estradiol, Figure 4b), the “increase in IC50 with a 100-fold higher estradiol concentration” value came to 100 fold.

(Values after publication PMC2613833 (Bioorganic & medicinal chemistry, 2008).)
